Marks after values point to notes of the source that are not given here.
Legend:
[1] = system: inflamed paw in rats; assay: Modified Randall-Selitto test (yeast-inflamed hind paw pain threshold); assay type: in vivo; settings: rat, one hour before measurement, % of control value
Description: (§1) There are several methods for testing analgesic drugs experimentally. […] The inflammation is induced in the rat hind paw by yeast suspension and the pain threshold of the paw is measured. […] In these tests, both the NSAIDs and opioid analgesics are known to be effective. The hot plate test in mice is a test in which only opioid analgesics are effective.
The effect on inflammatory pain was measured using a modified Randall-Selitto test. 0.1 ml of 20% Brewer's yeast suspension was injected subplantary to the right hind paw of rats under ether anaesthesia to elicit inflammation in the paw. After 3 hours the degree of hyperalgesia was determined with an analgesy-meter by applying a force of increasing magnitude to the inflamed paw with a cone-shaped teflon pusher. The force at which the animals begins to struggle was assumed to represent the pain threshold. The drugs were administered orally 5 ml/kg one hour before the measurement. The increase in pain threshold was calculated as a percentage of the control value.

[2] = system: acetic acid induced writhing in mice; assay: Acetic acid-induced writhing in mice; assay type: in vivo; settings: mouse
Description: as §1
Acetic acid induced writhing test is a widely used screening method for analgesic agents. […] Writing movements were elicited in mice by an i.p. injection of 1% acetic acid in the volume of 0.1 ml/10 g. The mice were placed in individual glass containers for observation. The number of writhes was counted during a period of 20 minutes and recorded every 5 minutes. The test compounds were given 5-60 minutes before the acetic acid.

[3] = system: formation of prostaglandins; settings: Aho and Linden, Scand.J.Gastroenterol. 1992; cited from earlier work

Compound	Increase in pain threshold (%) ([1]; 10 mg/kg p.o.)	Increase in pain threshold (%) ([1]; 30 mg/kg p.o.)	Inhibition of writhing (%) ([2]; 3 mg/kg i.v.)	Inhibition of writhing (%) ([2]; 10 mg/kg i.v.)	Inhibition of writhing (%) ([2]; 100 mg/kg p.o.)	Increase in pain threshold (%) ([1]; 1 mg/kg p.o.)	Inhibition of writhing (%) ([2]; 1 mg/kg i.p.)	Inhibition of writhing (%) ([2]; 2 mg/kg p.o.)	Inhibition of writhing (%) ([2]; 6 mg/kg p.o.)	Increase in pain threshold (%) ([1]; 3 mg/kg p.o.)	Inhibition of writhing (%) ([2]; 50 mg/kg p.o.)	Increase in pain threshold (%) ([1]; 0.5 mg/kg p.o.)	Inhibition of writhing (%) ([2]; 30 mg/kg i.p.)	Inhibition of writhing (%) ([2]; 100 mg/kg i.p.)	Effect on formation of prostaglandins [3]
CCN(CC)C(=O)/C(C#N)=C/c1cc(O)c(O)c([N+](=O)[O-])c1 [Entacapone, (E)-2-cyano-3-(3,4-dihydroxy-5-nitrophenyl)-N,N-diethyl-2-propenamide]	62%	64%	14	38* %	24%										
COc1ccc2c(c1)c(CC(=O)O)c(C)n2C(=O)c1ccc(Cl)cc1 [Indomethacin, indomethacin]						54* %	38* %	18* %	42** %						
CC(=O)c1cc(O)c(O)c([N+](=O)[O-])c1 [3′,4′-dihydroxy-5′-nitroacetophenone]	68** %	62* %			43** %					45%	28** %				
O=[N+]([O-])c1cc(O)c(O)c([N+](=O)[O-])c1 [3,5-dinitrocatechol]		65* %			22** %	49* %				49* %	36** %				
CC(=O)C(=Cc1cc(O)c(O)c([N+](=O)[O-])c1)C(C)=O [Nitecapone, 3-(3,4-dihydroxy-5-nitrophenyl)methylene-2,4-pentanedione]	45* %				21** %	58* %				46* %	15* %	13	37* %	76* %	stimulate the formation of prostaglandins

Source: patent US6723754B2, “Use of COMT inhibitors as analgesics” (Orion Corporation, priority 2000, dated 2004)
